Experimental data from ChEMBL document CHEMBL5576106, “Highly Functionalized Spirobisnaphthalenes from Roussoella sp. KT4147” (J Nat Prod, 2024).

Tested on: COLO 201
Test: Cytotoxicity against human COLO201 cells assessed as inhibition of cell growth incubated for 24 hrs by WST-1 assay
Format: functional, cell-based
Conditions: COLO 201, 24 h

SMILES: Oc1ccc(O)c2c1[C@@H](O)C[C@@H](O)C21Oc2cccc3cccc(c23)O1
- IC50: 9.8 µM

SMILES: O=C1C[C@@H](N[C@@H]2CC(=O)c3cccc4c3[C@@]23Oc2ccc(O)c5c2[C@](O4)(O3)[C@@H]2O[C@@H]2C5=O)[C@]23Oc4ccc(O)c5c4[C@](Oc4cccc1c42)(O3)[C@@H]1O[C@@H]1C5=O
- IC50: 5.7 µM

SMILES: CC[C@@]1(O)C(=O)OCc2c1cc1n(c2=O)Cc2cc3ccccc3nc2-1 [CAMPTOTHECIN]
- IC50: 27 µM

SMILES: O=C1C=CC(=O)C2=C1[C@@H](O)[C@H]1O[C@H]1C21Oc2cccc3cccc(c23)O1
- IC50: 9.4 µM

SMILES: COc1cc(=O)oc2c1[C@H](CO)[C@@H]1[C@H](C2)C(=O)c2cccc3c2[C@@]12Oc1ccc(O)c4c1[C@](O3)(O2)[C@@H]1O[C@@H]1C4=O
- IC50: 5.4 µM
